From paper PMC9532703, “A novel small molecule RK-019 inhibits FGFR2-amplification gastric cancer cell proliferation and induces apoptosis in vitro and in vivo” (Frontiers in Pharmacology, 2022)

Tests used:
Abl (H396P) (h) = biological target: T1, Abl (H396P) (h) (Homo sapiens, UniProt P00519, H396P); experiment: Kinase selectivity panel; type: biochemical; details: read-out: Inhibition(%) @ 1 µM RK-019
T1 construct: purchased Eurofins Discovery Services (KinaseProfiler)
Description: (§1) Median-inhibitory concentration (IC50) and inhibition ratio of kinases by RK-019 was assessed by Eurofins Discovery Services (Dundee, United Kingdom) using the ATP-site competition binding assay in vitro. Firstly, gradient concentration of RK-019 against FGFRs, including FGFR1, FGFR2, FGFR3, and FGFR4, were tested. IC50 value was calculate by the GraphPad Prism software (v8.4.3, GraphPad Software, California, United States). Then, to measure the selectivity prolife of RK-019, a panel of 422 recombinant human kinases was screened at a concentration of 1 µM RK-019. Kinase MAP was drawn by webtools from Cell Signaling Technology, Inc. (www.cellsignal.com).

Abl(T315I)(h) = biological target: T2, Abl(T315I)(h) (Homo sapiens, UniProt P00519, T315I); experiment: Kinase selectivity panel; type: biochemical; details: read-out: Inhibition(%) @ 1 µM RK-019
T2 construct: purchased Eurofins Discovery Services (KinaseProfiler)
Description: as §1

Arg(m) = biological target: T3, Arg(m) (Mus musculus, UniProt Q4JIM5); experiment: Kinase selectivity panel; type: biochemical; details: read-out: Inhibition(%) @ 1 µM RK-019
T3 construct: purchased Eurofins Discovery Services (KinaseProfiler)
Description: as §1

Aurora-B(h) = biological target: T4, Aurora-B(h) (Homo sapiens, UniProt Q96GD4); experiment: Kinase selectivity panel; type: biochemical; details: read-out: Inhibition(%) @ 1 µM RK-019
T4 construct: purchased Eurofins Discovery Services (KinaseProfiler)
Description: as §1

CDK5/p25(h) = biological target: T5, CDK5/p25(h) (Homo sapiens, UniProt Q00535); experiment: Kinase selectivity panel; type: biochemical; details: read-out: Inhibition(%) @ 1 µM RK-019
T5 construct: purchased Eurofins Discovery Services (KinaseProfiler)
Description: as §1

CHK1(h) = biological target: T6, CHK1(h) (Homo sapiens, UniProt O14757); experiment: Kinase selectivity panel; type: biochemical; details: read-out: Inhibition(%) @ 1 µM RK-019
T6 construct: purchased Eurofins Discovery Services (KinaseProfiler)
Description: as §1

CK2(h) = biological target: T7, CK2(h) (Homo sapiens, UniProt P68400); experiment: Kinase selectivity panel; type: biochemical; details: read-out: Inhibition(%) @ 1 µM RK-019
T7 construct: purchased Eurofins Discovery Services (KinaseProfiler)
Description: as §1

CLIK1(h) = biological target: T8, CLIK1(h) (Homo sapiens, UniProt Q8TDR2); experiment: Kinase selectivity panel; type: biochemical; details: read-out: Inhibition(%) @ 1 µM RK-019
T8 construct: purchased Eurofins Discovery Services (KinaseProfiler)
Description: as §1

EphA2(h) = biological target: T9, EphA2(h) (Homo sapiens, UniProt P29317); experiment: Kinase selectivity panel; type: biochemical; details: read-out: Inhibition(%) @ 1 µM RK-019
T9 construct: purchased Eurofins Discovery Services (KinaseProfiler)
Description: as §1

EphB2(h) = biological target: T10, EphB2(h) (Homo sapiens, UniProt P29323); experiment: Kinase selectivity panel; type: biochemical; details: read-out: Inhibition(%) @ 1 µM RK-019
T10 construct: purchased Eurofins Discovery Services (KinaseProfiler)
Description: as §1

Itk(h) = biological target: T11, Itk(h) (Homo sapiens, UniProt Q08881); experiment: Kinase selectivity panel; type: biochemical; details: read-out: Inhibition(%) @ 1 µM RK-019
T11 construct: purchased Eurofins Discovery Services (KinaseProfiler)
Description: as §1

LRRK2(h) = biological target: T12, LRRK2(h) (Homo sapiens, UniProt Q5S007); experiment: Kinase selectivity panel; type: biochemical; details: read-out: Inhibition(%) @ 1 µM RK-019
T12 construct: purchased Eurofins Discovery Services (KinaseProfiler)
Description: as §1

MRCKα(h) = biological target: T13, MRCKα(h) (Homo sapiens, UniProt Q5VT25); experiment: Kinase selectivity panel; type: biochemical; details: read-out: Inhibition(%) @ 1 µM RK-019
T13 construct: purchased Eurofins Discovery Services (KinaseProfiler)
Description: as §1

MST2(h) = biological target: T14, MST2(h) (Homo sapiens, UniProt Q13188); experiment: Kinase selectivity panel; type: biochemical; details: read-out: Inhibition(%) @ 1 µM RK-019
T14 construct: purchased Eurofins Discovery Services (KinaseProfiler)
Description: as §1

Met(M1268T)(h) = biological target: T15, Met(M1268T)(h) (Homo sapiens, UniProt P08581, M1250T); experiment: Kinase selectivity panel; type: biochemical; details: read-out: Inhibition(%) @ 1 µM RK-019
T15 construct: purchased Eurofins Discovery Services (KinaseProfiler)
Description: as §1

PAK6(h) = biological target: T16, PAK6(h) (Homo sapiens, UniProt Q9NQU5); experiment: Kinase selectivity panel; type: biochemical; details: read-out: Inhibition(%) @ 1 µM RK-019
T16 construct: purchased Eurofins Discovery Services (KinaseProfiler)
Description: as §1

[1] = biological target: T17, PI3 Kinase (p110a/p65a)(h) (Homo sapiens, UniProt P42336); experiment: Kinase selectivity panel; type: biochemical; details: read-out: Inhibition(%) @ 1 µM RK-019
T17 construct: purchased Eurofins Discovery Services (KinaseProfiler)
T17 sequence (P42336 whole entry): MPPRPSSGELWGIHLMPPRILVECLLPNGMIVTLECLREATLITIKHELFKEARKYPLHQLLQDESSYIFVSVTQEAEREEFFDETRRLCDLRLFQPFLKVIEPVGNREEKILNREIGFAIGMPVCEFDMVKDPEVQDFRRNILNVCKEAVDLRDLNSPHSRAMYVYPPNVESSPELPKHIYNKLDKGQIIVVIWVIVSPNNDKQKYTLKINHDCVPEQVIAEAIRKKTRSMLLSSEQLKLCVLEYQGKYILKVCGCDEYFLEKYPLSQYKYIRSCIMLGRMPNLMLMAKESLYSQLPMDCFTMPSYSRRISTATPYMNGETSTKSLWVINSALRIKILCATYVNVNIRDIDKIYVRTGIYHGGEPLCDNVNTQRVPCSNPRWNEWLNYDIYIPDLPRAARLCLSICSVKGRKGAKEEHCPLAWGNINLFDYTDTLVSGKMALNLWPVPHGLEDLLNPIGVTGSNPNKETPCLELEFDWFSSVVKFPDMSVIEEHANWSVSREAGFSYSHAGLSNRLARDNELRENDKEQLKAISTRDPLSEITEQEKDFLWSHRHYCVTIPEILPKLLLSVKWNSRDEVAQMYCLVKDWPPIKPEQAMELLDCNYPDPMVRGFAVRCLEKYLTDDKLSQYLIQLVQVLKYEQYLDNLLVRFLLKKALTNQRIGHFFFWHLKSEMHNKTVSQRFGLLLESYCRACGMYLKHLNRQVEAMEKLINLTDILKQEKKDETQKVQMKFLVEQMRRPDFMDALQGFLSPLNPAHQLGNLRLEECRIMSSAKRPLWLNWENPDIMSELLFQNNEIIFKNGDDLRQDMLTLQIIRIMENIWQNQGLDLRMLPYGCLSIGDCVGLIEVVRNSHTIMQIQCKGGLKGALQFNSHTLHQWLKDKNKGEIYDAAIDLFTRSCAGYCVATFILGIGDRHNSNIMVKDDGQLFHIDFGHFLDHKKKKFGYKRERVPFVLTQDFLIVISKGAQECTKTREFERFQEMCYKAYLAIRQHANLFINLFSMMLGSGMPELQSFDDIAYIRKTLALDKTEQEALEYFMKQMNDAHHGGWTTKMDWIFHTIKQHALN
T17 sequence (P27986 1-571 partner limits assumed): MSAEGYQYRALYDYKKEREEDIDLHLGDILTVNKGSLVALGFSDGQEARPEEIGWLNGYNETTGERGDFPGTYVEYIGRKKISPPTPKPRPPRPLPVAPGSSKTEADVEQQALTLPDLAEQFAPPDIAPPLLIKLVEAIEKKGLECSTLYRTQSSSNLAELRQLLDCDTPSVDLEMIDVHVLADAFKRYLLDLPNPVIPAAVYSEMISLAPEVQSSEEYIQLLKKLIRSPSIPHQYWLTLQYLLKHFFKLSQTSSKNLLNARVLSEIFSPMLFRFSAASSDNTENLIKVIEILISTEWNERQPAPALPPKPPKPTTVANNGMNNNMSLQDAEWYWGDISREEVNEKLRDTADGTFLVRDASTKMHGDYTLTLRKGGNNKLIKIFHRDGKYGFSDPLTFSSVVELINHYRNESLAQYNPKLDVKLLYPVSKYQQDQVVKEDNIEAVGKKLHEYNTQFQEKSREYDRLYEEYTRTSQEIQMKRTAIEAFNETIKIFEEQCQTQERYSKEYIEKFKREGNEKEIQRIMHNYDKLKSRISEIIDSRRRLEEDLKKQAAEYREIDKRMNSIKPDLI
Description: as §1

[2] = biological target: T18, PI3 Kinase (p110a/p85a)(m) (Mus musculus, UniProt P42337); experiment: Kinase selectivity panel; type: biochemical; details: read-out: Inhibition(%) @ 1 µM RK-019
T18 construct: purchased Eurofins Discovery Services (KinaseProfiler)
T18 sequence (P42337 whole entry): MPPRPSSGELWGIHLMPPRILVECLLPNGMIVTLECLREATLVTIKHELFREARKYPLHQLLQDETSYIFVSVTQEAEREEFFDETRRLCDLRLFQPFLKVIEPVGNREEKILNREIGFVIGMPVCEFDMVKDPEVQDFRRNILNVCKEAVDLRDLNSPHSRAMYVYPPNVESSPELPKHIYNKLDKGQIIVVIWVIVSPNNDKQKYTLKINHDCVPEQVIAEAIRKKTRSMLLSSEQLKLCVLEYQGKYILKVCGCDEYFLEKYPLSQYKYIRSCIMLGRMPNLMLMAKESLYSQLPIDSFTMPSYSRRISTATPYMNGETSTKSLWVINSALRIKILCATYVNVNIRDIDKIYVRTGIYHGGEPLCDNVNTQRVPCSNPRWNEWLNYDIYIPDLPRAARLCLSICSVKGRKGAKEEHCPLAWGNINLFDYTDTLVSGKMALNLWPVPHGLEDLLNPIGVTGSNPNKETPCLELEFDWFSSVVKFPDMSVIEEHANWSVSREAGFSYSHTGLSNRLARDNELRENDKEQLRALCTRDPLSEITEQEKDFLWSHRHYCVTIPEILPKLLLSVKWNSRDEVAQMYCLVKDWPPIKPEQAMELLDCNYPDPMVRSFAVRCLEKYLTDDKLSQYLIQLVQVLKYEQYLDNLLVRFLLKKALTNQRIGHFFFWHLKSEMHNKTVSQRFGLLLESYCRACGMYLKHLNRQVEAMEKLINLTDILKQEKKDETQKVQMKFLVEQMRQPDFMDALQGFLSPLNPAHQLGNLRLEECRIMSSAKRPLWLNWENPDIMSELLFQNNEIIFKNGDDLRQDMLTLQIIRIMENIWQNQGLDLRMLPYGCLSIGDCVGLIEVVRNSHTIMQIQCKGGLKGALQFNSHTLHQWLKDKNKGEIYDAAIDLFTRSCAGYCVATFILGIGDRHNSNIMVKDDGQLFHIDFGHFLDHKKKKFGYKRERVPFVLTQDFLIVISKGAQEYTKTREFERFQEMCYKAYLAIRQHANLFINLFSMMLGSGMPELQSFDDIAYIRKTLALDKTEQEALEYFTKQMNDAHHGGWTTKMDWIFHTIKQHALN
T18 sequence (P26450 2-724 partner): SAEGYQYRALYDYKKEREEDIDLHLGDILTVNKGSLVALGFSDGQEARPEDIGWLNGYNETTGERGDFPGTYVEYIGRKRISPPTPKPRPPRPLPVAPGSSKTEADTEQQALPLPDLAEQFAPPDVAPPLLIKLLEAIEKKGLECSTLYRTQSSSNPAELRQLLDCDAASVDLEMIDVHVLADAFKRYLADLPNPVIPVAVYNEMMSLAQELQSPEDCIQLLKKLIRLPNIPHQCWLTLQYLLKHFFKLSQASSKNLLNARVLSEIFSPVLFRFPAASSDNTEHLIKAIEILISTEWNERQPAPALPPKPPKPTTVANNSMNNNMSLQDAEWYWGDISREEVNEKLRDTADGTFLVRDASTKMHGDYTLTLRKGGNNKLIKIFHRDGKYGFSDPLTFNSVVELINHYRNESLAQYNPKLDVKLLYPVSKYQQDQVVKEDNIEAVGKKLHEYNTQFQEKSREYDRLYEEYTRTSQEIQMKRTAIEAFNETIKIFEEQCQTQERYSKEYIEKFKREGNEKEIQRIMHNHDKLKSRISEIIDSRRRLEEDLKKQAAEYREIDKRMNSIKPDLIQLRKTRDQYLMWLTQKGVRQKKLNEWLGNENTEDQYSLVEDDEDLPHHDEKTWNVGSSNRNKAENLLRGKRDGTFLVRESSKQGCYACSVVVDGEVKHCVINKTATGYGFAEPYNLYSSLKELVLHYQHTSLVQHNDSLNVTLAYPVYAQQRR
Description: as §1

PKCβII(h) = biological target: T19, PKCβII(h) (Homo sapiens, UniProt P05771); experiment: Kinase selectivity panel; type: biochemical; details: read-out: Inhibition(%) @ 1 µM RK-019
T19 construct: purchased Eurofins Discovery Services (KinaseProfiler)
Description: as §1

PKR(h) = biological target: T20, PKR(h) (Homo sapiens, UniProt P19525); experiment: Kinase selectivity panel; type: biochemical; details: read-out: Inhibition(%) @ 1 µM RK-019
T20 construct: purchased Eurofins Discovery Services (KinaseProfiler)
T20 sequence (P19525 whole entry): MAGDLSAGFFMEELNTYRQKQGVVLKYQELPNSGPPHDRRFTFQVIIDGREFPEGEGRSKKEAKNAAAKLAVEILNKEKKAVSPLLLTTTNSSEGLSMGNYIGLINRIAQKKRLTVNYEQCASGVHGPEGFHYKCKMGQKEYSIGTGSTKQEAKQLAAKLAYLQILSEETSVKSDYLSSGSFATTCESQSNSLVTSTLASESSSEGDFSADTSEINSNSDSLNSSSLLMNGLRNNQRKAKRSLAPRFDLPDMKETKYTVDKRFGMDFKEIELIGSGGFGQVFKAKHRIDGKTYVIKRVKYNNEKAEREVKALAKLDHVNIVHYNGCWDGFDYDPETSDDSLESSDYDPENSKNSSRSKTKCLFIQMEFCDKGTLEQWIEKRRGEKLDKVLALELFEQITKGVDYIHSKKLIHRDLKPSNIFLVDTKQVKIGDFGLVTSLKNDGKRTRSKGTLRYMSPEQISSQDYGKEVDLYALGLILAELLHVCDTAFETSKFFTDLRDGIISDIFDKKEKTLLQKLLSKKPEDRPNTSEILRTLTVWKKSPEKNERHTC
Description: as §1

PRAK(h) = biological target: T21, PRAK(h) (Homo sapiens, UniProt Q8IW41); experiment: Kinase selectivity panel; type: biochemical; details: read-out: Inhibition(%) @ 1 µM RK-019
T21 construct: purchased Eurofins Discovery Services (KinaseProfiler)
T21 sequence (Q8IW41 whole entry): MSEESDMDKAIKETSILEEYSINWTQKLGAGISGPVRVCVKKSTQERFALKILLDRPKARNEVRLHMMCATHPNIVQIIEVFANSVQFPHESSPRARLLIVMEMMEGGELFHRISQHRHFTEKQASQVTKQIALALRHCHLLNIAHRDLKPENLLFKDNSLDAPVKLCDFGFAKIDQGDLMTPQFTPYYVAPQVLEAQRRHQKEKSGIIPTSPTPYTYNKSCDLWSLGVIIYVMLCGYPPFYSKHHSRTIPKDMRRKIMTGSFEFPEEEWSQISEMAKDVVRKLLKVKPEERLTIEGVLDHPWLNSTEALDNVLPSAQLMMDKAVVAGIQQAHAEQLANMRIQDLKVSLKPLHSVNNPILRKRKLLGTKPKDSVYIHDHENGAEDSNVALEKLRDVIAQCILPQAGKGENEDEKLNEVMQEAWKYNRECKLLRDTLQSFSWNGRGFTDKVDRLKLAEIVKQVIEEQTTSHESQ
Description: as §1

Plk1(h) = biological target: T22, Plk1(h) (Homo sapiens, UniProt P53350); experiment: Kinase selectivity panel; type: biochemical; details: read-out: Inhibition(%) @ 1 µM RK-019
T22 construct: purchased Eurofins Discovery Services (KinaseProfiler)
Description: as §1

SAPK3(h) = biological target: T23, SAPK3(h) (Homo sapiens, UniProt P53778); experiment: Kinase selectivity panel; type: biochemical; details: read-out: Inhibition(%) @ 1 µM RK-019
T23 construct: purchased Eurofins Discovery Services (KinaseProfiler)
Description: as §1

SAPK4(h) = biological target: T24, SAPK4(h) (Homo sapiens, UniProt O15264); experiment: Kinase selectivity panel; type: biochemical; details: read-out: Inhibition(%) @ 1 µM RK-019
T24 construct: purchased Eurofins Discovery Services (KinaseProfiler)
Description: as §1

SBK1(h) = biological target: T25, SBK1(h) (Homo sapiens, UniProt Q52WX2); experiment: Kinase selectivity panel; type: biochemical; details: read-out: Inhibition(%) @ 1 µM RK-019
T25 construct: purchased Eurofins Discovery Services (KinaseProfiler)
Description: as §1

SGK3(h) = biological target: T26, SGK3(h) (Homo sapiens, UniProt Q96BR1); experiment: Kinase selectivity panel; type: biochemical; details: read-out: Inhibition(%) @ 1 µM RK-019
T26 construct: purchased Eurofins Discovery Services (KinaseProfiler)
Description: as §1

Txk(h) = biological target: T27, Txk(h) (Homo sapiens, UniProt P42681); experiment: Kinase selectivity panel; type: biochemical; details: read-out: Inhibition(%) @ 1 µM RK-019
T27 construct: purchased Eurofins Discovery Services (KinaseProfiler)
T27 sequence (P42681 whole entry): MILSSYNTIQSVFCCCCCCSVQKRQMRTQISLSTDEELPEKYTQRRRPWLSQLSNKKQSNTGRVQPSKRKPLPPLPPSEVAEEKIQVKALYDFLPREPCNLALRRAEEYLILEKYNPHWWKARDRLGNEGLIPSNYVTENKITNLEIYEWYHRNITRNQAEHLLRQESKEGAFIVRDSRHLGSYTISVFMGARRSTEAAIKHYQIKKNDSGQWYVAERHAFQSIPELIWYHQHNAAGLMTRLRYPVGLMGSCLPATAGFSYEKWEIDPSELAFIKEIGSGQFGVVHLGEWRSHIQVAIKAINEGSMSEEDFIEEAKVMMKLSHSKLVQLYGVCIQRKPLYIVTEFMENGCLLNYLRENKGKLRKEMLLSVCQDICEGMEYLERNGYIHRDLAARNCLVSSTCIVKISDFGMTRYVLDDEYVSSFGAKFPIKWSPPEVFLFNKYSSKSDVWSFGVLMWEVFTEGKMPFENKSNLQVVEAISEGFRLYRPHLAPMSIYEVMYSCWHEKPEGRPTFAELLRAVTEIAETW
Description: as §1

WNK4(h) = biological target: T28, WNK4(h) (Homo sapiens, UniProt Q96J92); experiment: Kinase selectivity panel; type: biochemical; details: read-out: Inhibition(%) @ 1 µM RK-019
T28 construct: purchased Eurofins Discovery Services (KinaseProfiler)
Description: as §1

In vivo PK assay = experiment: In vivo PK assay; set-up: species or system Sprague-Dawley rats; details: rats
Description: All animal experiments in this study have been approved by the Institutional Animal Care and Treatment Committee of Sichuan University in China and were carried out in accordance with the approved guidelines. Sprague-Dawley rats (weight 180–200 g, Beijing HJF bioscience, Beijing, China) were used in this experiment and maintained in a specific-pathogen-free (SPF) condition facility. RK-019 was dissolve in ethanol first, followed by mixed with Kolliphor EL, then filled with saline to the calculated volume. The formula was 12.5% ethanol, 12.5% Kolliphor EL, and 75% saline. RK-019 was administrated via i. v. 3 mg/kg or p. o. 30 mg/kg. After 5, 10, 15, 30, 60, 120, 240, 360, 600, and 1,440 min of administration, the blood samples were collected. Plasma fraction was obtained by centrifuged blood, then deproteinized with methanol containing an internal standard. The compound concentrations of the target compound in the supernatant were measured by liquid chromatography–mass spectrometry/mass spectrometry (LC-MS/MS).

[3] = Sprague-Dawley, rat, plasma, iv, 3 mg/kg i.v
[4] = Sprague-Dawley, rat, plasma, po, 30 mg/kg p.o

SMILES: COc1cc(OC)cc(N(CCN[C@H](C)CO)c2ccc3ncc(-c4cnn(C)c4)c(=O)n3c2)c1 [RK-019, (R)-7-((3,5-dimethoxyphenyl) (2-((1-hydroxypropan-2-yl)amino)ethyl)amino)-3-(1-methyl-1H-pyrazol-4-yl)-4H-pyrido [1,2-a]pyrimidin-4-one]
- activity at 1 µM (Abl (H396P) (h)): 49%
- activity at 1 µM (Abl(T315I)(h)): 66%
- activity at 1 µM (Arg(m)): 88%
- activity at 1 µM (Aurora-B(h)): 87%
- activity at 1 µM (CDK5/p25(h)): 112%
- activity at 1 µM (CHK1(h)): 90%
- activity at 1 µM (CK2(h)): 112%
- activity at 1 µM (CLIK1(h)): 102%
- activity at 1 µM (EphA2(h)): 61%
- activity at 1 µM (EphB2(h)): 96%
- activity at 1 µM (Itk(h)): 104%
- activity at 1 µM (LRRK2(h)): 80%
- activity at 1 µM (MRCKα(h)): 103%
- activity at 1 µM (MST2(h)): 97%
- activity at 1 µM (Met(M1268T)(h)): 71%
- activity at 1 µM (PAK6(h)): 96%
- activity at 1 µM [1]: 94%
- activity at 1 µM [2]: 101%
- activity at 1 µM (PKCβII(h)): 111%
- activity at 1 µM (PKR(h)): 50%
- activity at 1 µM (PRAK(h)): 95%
- activity at 1 µM (Plk1(h)): 117%
- activity at 1 µM (SAPK3(h)): 99%
- activity at 1 µM (SAPK4(h)): 112%
- activity at 1 µM (SBK1(h)): 96%
- activity at 1 µM (SGK3(h)): 97%
- activity at 1 µM (Txk(h)): 106%
- activity at 1 µM (WNK4(h)): 86%
- AUC(0-t) (In vivo PK assay; [3]): 763 ± 50.8 ng·h/mL
- Cmax (In vivo PK assay; [3]): 461 ± 47.8 ng/mL
- MRT (In vivo PK assay; [3]): 1.64 ± 0.19 h
- half-life (In vivo PK assay; [3]): 1.58 ± 0.29 h
- AUC(0-t) (In vivo PK assay; [4]): 1450 ng·h/mL
- Cmax (In vivo PK assay; [4]): 235 ± 77.8 ng/mL
- MRT (In vivo PK assay; [4]): 4.49 ± 1.19 h
- Tmax (In vivo PK assay; [4]): 2.67 ± 2.89 h
- half-life (In vivo PK assay; [4]): 2.83 ± 0.37 h
- F% (oral relative bioavailability) (In vivo PK assay; 30 mg/kg p.o): 19.00%
